The test system of this assay is L1210 leukemia ip in BDF1 mice, survival T/C. Briefly: NCI In Vivo Anticancer Drug Screen. Data for tumor model L1210 Leukemia (intraperitoneal) in B6D2F1 (BDF1) mice. The settings on record: endpoint: mean survival time, higher = longer survival. The procedure, abridged:
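Antitumor effect is assessed in tumor-bearing animals. Survival in the compound arm is compared with a vehicle-dosed control arm and expressed as their quotient.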

Where [1] appears, read: dose: 100.0 mg/kg/injection, schedule: Q04DX002 (ip), vehicle: Klucel (hydroxypropylcellulose) (HPC).
Where [2] appears, read: dose: 200.0 mg/kg/injection, schedule: Q04DX002 (ip), vehicle: Klucel (hydroxypropylcellulose) (HPC).
[3] abbreviates: dose: 400.0 mg/kg/injection, schedule: Q04DX002 (ip), vehicle: Klucel (hydroxypropylcellulose) (HPC).
Where [4] appears, read: dose: 100.0 mg/kg/injection, schedule: Q01DX001 (ip), vehicle: saline.
Setting [5] is: dose: 200.0 mg/kg/injection, schedule: Q01DX001 (ip), vehicle: saline.
Setting [6] is: dose: 50.0 mg/kg/injection, schedule: Q04DX003 (ip), vehicle: saline.

Values joined by “and” are separate entries in the source; they are usually repeats but may differ in a detail not shown here. Equal entries are not always repeated. Inconclusive results and toxic doses are left out.

For `COc1cc(Cl)ccc1NC(=O)Oc1ccc(C=O)cc1OC`, the T/C is 101 % of control under setting [1], 90 % of control under setting [2] and 93 % of control under setting [3].

As for `Cc1ccc(NC(=S)Nc2ccccc2)cc1Cl`, the T/C under setting [1] is 106 % of control, the T/C under setting [2] is 100 % of control and the T/C under setting [3] is 100 % of control.

Consider `CC(=O)OCC1OC(SSCc2ccccc2)C(OC(C)=O)C(OC(C)=O)C1OC(C)=O` (stereo not given), for which the T/C by setting is: under setting [4], 96 % of control; under setting [5], 93 % of control; (dose: 400.0 mg/kg/injection, schedule: Q01DX001 (ip), vehicle: saline) 93 % of control.

Consider `OC1CCCC2CCC[N-]C12.OC1CCCC2CCC[N-]C12.[O]=[V][OH]` (stereo not given), for which the T/C is 105 % of control (dose: 24.0 mg/kg/injection, schedule: Q01DX015 (ip), vehicle: carboxymethylcellulose (CMC)); 93 % of control (dose: 25.0 mg/kg/injection, schedule: Q04DX003 (ip), vehicle: saline); 105 % of control (dose: 36.0 mg/kg/injection, schedule: Q01DX015 (ip), vehicle: carboxymethylcellulose (CMC)); 100 % of control (dose: 50.0 mg/kg/injection, schedule: Q01DX001 (ip), vehicle: saline); 93 % of control under setting [6]; 102 % of control (dose: 54.0 mg/kg/injection, schedule: Q01DX015 (ip), vehicle: carboxymethylcellulose (CMC)). Further, the T/C (dose: 100.0 mg/kg/injection, schedule: Q04DX003 (ip), vehicle: saline) is 95 % of control.

Regarding `CC1O/C(=N\O)C(C)O1` (stereo not given), the T/C is, setting by setting: (dose: 100.0 mg/kg/injection, schedule: Q01DX009 (ip), vehicle: carboxymethylcellulose (CMC)) 95 % of control and 97 % of control; (dose: 100.0 mg/kg/injection, schedule: Q04DX002 (ip), vehicle: carboxymethylcellulose (CMC)) 106 % of control and 115 % of control; (dose: 100.0 mg/kg/injection, schedule: Q04DX003 (ip), vehicle: carboxymethylcellulose (CMC)) 93 % of control; (dose: 200.0 mg/kg/injection, schedule: Q01DX009 (ip), vehicle: carboxymethylcellulose (CMC)) 93 % of control and 95 % of control; (dose: 200.0 mg/kg/injection, schedule: Q04DX002 (ip), vehicle: carboxymethylcellulose (CMC)) 97 % of control and 102 % of control; (dose: 200.0 mg/kg/injection, schedule: Q04DX003 (ip), vehicle: carboxymethylcellulose (CMC)) 101 % of control. For the same compound, the T/C runs as follows: (dose: 400.0 mg/kg/injection, schedule: Q01DX009 (ip), vehicle: carboxymethylcellulose (CMC)) 93 % of control and 105 % of control; (dose: 400.0 mg/kg/injection, schedule: Q04DX002 (ip), vehicle: carboxymethylcellulose (CMC)) 95 % of control; (dose: 400.0 mg/kg/injection, schedule: Q04DX003 (ip), vehicle: carboxymethylcellulose (CMC)) 98 % of control.

Take `N#Cc1ccccc1OCCCCCCCCCCOc1ccccc1C#N`: the T/C is 99 % of control (dose: 75.0 mg/kg/injection, schedule: Q01DX009 (ip), vehicle: Klucel (hydroxypropylcellulose) (HPC)); 92 % of control (dose: 150.0 mg/kg/injection, schedule: Q01DX009 (ip), vehicle: Klucel (hydroxypropylcellulose) (HPC)); 90 % of control (dose: 300.0 mg/kg/injection, schedule: Q01DX009 (ip), vehicle: Klucel (hydroxypropylcellulose) (HPC)).

With `COc1cccc(-c2c(C(=O)OC(C)(C)C)cc(O)c3ccc(OC)cc23)c1`, the T/C (dose: 100.0 mg/kg/injection, schedule: Q01DX001 (ip), vehicle: carboxymethylcellulose (CMC)) is 97 % of control; the T/C (dose: 200.0 mg/kg/injection, schedule: Q01DX001 (ip), vehicle: carboxymethylcellulose (CMC)) is 96 % of control; the T/C (dose: 400.0 mg/kg/injection, schedule: Q01DX001 (ip), vehicle: carboxymethylcellulose (CMC)) is 97 % of control.

`COc1ccc2cc1Oc1ccc(cc1)CC1c3cc(c(OC)cc3CCN1C)Oc1c(OC)c(OC)c(OC)c3c1C(C2)N(C)CC3` (stereo not given): the T/C was 102 % of control under setting [1], 91 % of control under setting [2] and 94 % of control under setting [3].

As to `CN=C(N)c1cccc(NC(=O)c2ccc(C(=O)Nc3cccc(C(N)=NC)c3)cc2)c1`, the T/C reads like this: (dose: 15.0 mg/kg/injection, schedule: Q01DX Z (ip), vehicle: saline) 109 % of control; (dose: 30.0 mg/kg/injection, schedule: Q01DX Z (ip), vehicle: saline) 93 % of control.

In the case of `COc1cc2c(cc1OC)C1C(=CCC3c4cc(OC)c(OC)cc4CC[N+]31C)C=C2` (stereo not given), the T/C is, setting by setting: (dose: 6.25 mg/kg/injection, schedule: Q01DX009 (ip), vehicle: saline with Tween-80) 95 % of control; (dose: 12.5 mg/kg/injection, schedule: Q01DX009 (ip), vehicle: saline with Tween-80) 99 % of control; (dose: 25.0 mg/kg/injection, schedule: Q01DX009 (ip), vehicle: saline with Tween-80) 102 % of control.

`CCN(CC)C(=O)COC(=O)c1cccc2[nH]ccc12`: the T/C by setting is: (dose: 100.0 mg/kg/injection, schedule: Q04DX003 (ip), vehicle: saline with Tween-80) 102 % of control; (dose: 200.0 mg/kg/injection, schedule: Q04DX003 (ip), vehicle: saline with Tween-80) 100 % of control; (dose: 400.0 mg/kg/injection, schedule: Q04DX003 (ip), vehicle: saline with Tween-80) 102 % of control.

Take `O=C(Nc1ccc(C(=O)Nc2ccc(C3=NCCN3)cc2)cc1)Nc1ccc(C2=NCCN2)cc1`: the T/C reads like this: (dose: 1.88 mg/kg/injection, schedule: Q01DX Z (ip), vehicle: saline) 117 % of control; (dose: 3.75 mg/kg/injection, schedule: Q01DX Z (ip), vehicle: saline) 117 % of control; (dose: 7.5 mg/kg/injection, schedule: Q01DX Z (ip), vehicle: saline) 123 % of control; (dose: 30.0 mg/kg/injection, schedule: Q01DX Z (ip), vehicle: carboxymethylcellulose (CMC)) 166 % of control; (dose: 30.0 mg/kg/injection, schedule: Q01DX Z (sc), vehicle: saline) 97 % of control; (dose: 44.0 mg/kg/injection, schedule: Q01DX007 (oral), vehicle: carboxymethylcellulose (CMC)) 103 % of control. The T/C was 218 % of control (dose: 60.0 mg/kg/injection, schedule: Q01DX Z (ip), vehicle: carboxymethylcellulose (CMC)); 109 % of control (dose: 60.0 mg/kg/injection, schedule: Q01DX Z (sc), vehicle: saline); 109 % of control (dose: 62.5 mg/kg/injection, schedule: Q01DX010 (oral), vehicle: saline); 101 % of control (dose: 88.0 mg/kg/injection, schedule: Q01DX007 (oral), vehicle: carboxymethylcellulose (CMC)); 192 % of control (dose: 120.0 mg/kg/injection, schedule: Q01DX Z (ip), vehicle: carboxymethylcellulose (CMC)); 120 % of control (dose: 120.0 mg/kg/injection, schedule: Q01DX Z (sc), vehicle: saline). The T/C (dose: 125.0 mg/kg/injection, schedule: Q01DX010 (oral), vehicle: saline) was 108 % of control; the T/C (dose: 175.0 mg/kg/injection, schedule: Q01DX007 (oral), vehicle: carboxymethylcellulose (CMC)) is 101 % of control; the T/C (dose: 240.0 mg/kg/injection, schedule: Q01DX Z (sc), vehicle: saline) was 154 % of control; the T/C (dose: 250.0 mg/kg/injection, schedule: Q01DX010 (oral), vehicle: saline) is 106 % of control; the T/C (dose: 350.0 mg/kg/injection, schedule: Q01DX007 (oral), vehicle: carboxymethylcellulose (CMC)) was 100 % of control; the T/C (dose: 500.0 mg/kg/injection, schedule: Q01DX010 (oral), vehicle: saline) was 106 % of control. Also, the T/C (dose: 700.0 mg/kg/injection, schedule: Q01DX007 (oral), vehicle: carboxymethylcellulose (CMC)) is 100 % of control.

On to `Cc1cc(Cl)cc([N+](=O)[O-])c1`, for which the T/C reads like this: (dose: 100.0 mg/kg/injection, schedule: Q01DX009 (ip), vehicle: saline with Tween-80) 96 % of control; (dose: 200.0 mg/kg/injection, schedule: Q01DX009 (ip), vehicle: saline with Tween-80) 96 % of control; (dose: 400.0 mg/kg/injection, schedule: Q01DX009 (ip), vehicle: saline with Tween-80) 95 % of control.

On to `O=C1c2cccc3c([N+](=O)[O-])ccc(c23)C(=O)N1Cc1ccco1`, for which the T/C reads like this: under setting [1], 108 % of control; under setting [2], 97 % of control; under setting [3], 102 % of control.

As for `CCCCCCCCCCCC[N+](CC)(CC)CC(=O)O`, the T/C was 88 % of control (dose: 12.5 mg/kg/injection, schedule: Q01DX009 (ip), vehicle: saline); 97 % of control (dose: 25.0 mg/kg/injection, schedule: Q01DX009 (ip), vehicle: saline); 104 % of control (dose: 50.0 mg/kg/injection, schedule: Q01DX009 (ip), vehicle: saline); 111 % of control under setting [6]; 93 % of control under setting [4]; 98 % of control under setting [5].

As to `CN(C)CCCNc1c2ccc(Cl)cc2nc2ccc(O)cc12`, the T/C runs as follows: (dose: 12.5 mg/kg/injection, schedule: Q04DX002 (ip), vehicle: saline) 107 % of control; (dose: 25.0 mg/kg/injection, schedule: Q04DX002 (ip), vehicle: saline) 115 % of control.

Values taken from PubChem BioAssay AID248 (DTP/NCI, 2004).
